{"source": "patent US20250092014A1", "about": "“COMPOUNDS AND METHODS OF ACTIVATING LIPOPROTEIN LIPASE” (Metrea Biosciences, Inc., priority 2021, published 2025)", "key": {"Human LPL": {"target": "T1, Human LPL (Homo sapiens, UniProt P06858)", "T1 construct": "purchased R&D Systems; host or cells: LPL added from outside to CHO pgsA-745 cells stably transfected with human GPIHBP1-HA", "T1 sequence (P06858 28-475)": "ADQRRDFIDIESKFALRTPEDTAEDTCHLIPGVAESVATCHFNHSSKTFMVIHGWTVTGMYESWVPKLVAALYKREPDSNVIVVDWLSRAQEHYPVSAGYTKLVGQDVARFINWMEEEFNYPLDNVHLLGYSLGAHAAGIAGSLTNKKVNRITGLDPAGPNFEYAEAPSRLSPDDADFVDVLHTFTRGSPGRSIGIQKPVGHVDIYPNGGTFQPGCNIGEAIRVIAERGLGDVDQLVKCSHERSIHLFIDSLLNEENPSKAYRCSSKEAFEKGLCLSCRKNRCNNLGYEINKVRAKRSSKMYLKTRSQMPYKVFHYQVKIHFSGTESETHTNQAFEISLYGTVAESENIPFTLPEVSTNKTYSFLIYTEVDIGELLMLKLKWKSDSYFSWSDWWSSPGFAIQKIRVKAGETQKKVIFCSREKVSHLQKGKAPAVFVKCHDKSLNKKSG", "T1 sequence (Q8IV16 21-151 partner limits assumed)": "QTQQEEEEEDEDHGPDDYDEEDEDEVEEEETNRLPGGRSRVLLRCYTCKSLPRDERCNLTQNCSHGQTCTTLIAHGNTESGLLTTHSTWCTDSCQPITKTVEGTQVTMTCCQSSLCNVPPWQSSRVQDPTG", "assay": "Cellular lipolysis assay, intrinsic activation (Angptl4 omitted), CHO pgsA-745/GPIHBP1 cells", "assay_type": "cell-based", "details": "30 μM, 10 PM, 3 μM and 1 μM doses, compared to 50 nM LPL alone", "description": "Chinese hamster ovary (CHO) mutant pgsA-745 cells were grown in F-12K media (ATCC) with 10% FBS and penicillin/streptomycin. One day prior to transfection 300,000 cells were seeded per well in a 6 well plate and cultured overnight. 2 μg of human GPIHBPI in pcDNA3.1(+)—C-HA (Genscript) were transfected using Lipofectamine 3000 (Invitrogen) and the cells were cultured for 24 hours. Cells were split into selection media (600 μg/ml G418 (Gibco)) and a stable pool was established and verified by qPCR and western blotting using anti-HA (Cell Signaling) and GPIHBP1 (Santa Cruz) antibodies (data not shown).\nCHO pgsA-745 cells overexpressing GPIHBPI were seeded at 200,000 cells per well in 24 well plates and cultured overnight. Media was replaced with serum-free F-12K media containing 0.1 U/ml heparin and cultured for 2 hours to remove surface bound endogenous LPL, then cells were washed with PBS. Human LPL (R&D Systems) was diluted to 50 nM in serum free media and added for 30 minutes gently shaking at room temperature, then cells were washed with PBS to remove unbound LPL. […] Test compound and ANGPTL4 were removed and cells washed with PBS. […] Media was removed and fluorescence read at Ex482/Em515."}, "[1]": {"target": "T2, LPL (native bovine milk protein) inactivated by ANGPTL4 (Bos taurus, UniProt P11151)", "T2 construct": "from tissue; host or cells: bovine milk (LPL); E. coli (GST-ANGPTL4)", "T2 sequence (P11151 29-478)": "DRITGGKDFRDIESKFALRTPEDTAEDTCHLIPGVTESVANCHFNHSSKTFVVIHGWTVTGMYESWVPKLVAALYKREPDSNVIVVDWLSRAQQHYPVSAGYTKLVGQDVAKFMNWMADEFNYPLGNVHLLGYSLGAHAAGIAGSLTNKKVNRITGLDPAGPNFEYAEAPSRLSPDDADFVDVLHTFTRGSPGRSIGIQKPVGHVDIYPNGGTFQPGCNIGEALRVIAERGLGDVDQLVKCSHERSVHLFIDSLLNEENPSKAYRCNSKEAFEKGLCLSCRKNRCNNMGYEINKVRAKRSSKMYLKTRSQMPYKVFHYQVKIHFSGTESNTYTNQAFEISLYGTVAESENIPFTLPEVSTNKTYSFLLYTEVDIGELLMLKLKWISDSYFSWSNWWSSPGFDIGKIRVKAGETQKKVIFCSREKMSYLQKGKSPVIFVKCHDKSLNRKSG", "assay": "LPL ANGPTL4 protection assay (LPL fluorescence assay, resorufin butyrate substrate)", "assay_type": "biochemical", "details": "LPL activation activity, LPL 2.5 nM, ANGPTL4 20 nM"}}, "note": "Entries after “also recorded” stand apart in the source; their conditions may differ.", "data": [{"smiles": "O=C(O)Cc1cc(F)ccc1NC(=O)c1ccc(N2CCCCC2)c(NC(=O)c2nn(CC(F)(F)F)c3ccccc23)c1", "note": "[Compound 158, 2-(5-fluoro-2-(4-(piperidin-1-yl)-3-(1-(2,2,2-trifluoroethyl)-1H-indazole-3-carboxamido)benzamido)phenyl)acetic acid]", "values": [{"measurement": "lipolysis activity (EnzChek substrate fluorescence), intrinsic activation of LPL", "setting": "Human LPL", "value": "intrinsic activation; also recorded: significantly increased lipolysis activity"}, {"measurement": "EC50", "setting": "[1]", "value": 1010, "unit": "nM"}]}]}
